# Key:
# [1] = test system: Normal human fibroblasts [CCD45SK (ATCC CRL 1506)]; assay: Response to PDGF: procollagenase production by normal human fibroblasts (Test Example 11); format: cell-based; settings: 1 mM, 6 days, 30 ng/ml PDGF-BB
# Protocol: Normal human fibroblasts [CCD45SK (ATCC CRL 1506) as prepared from the skin of a person] were suspended at a cell density of 1×10^5 cells/ml in the MEM medium, comprising 10% (V/V) FBS and 1% (V/V) non-essential amino acids (produced by Dai-Nippon Pharmaceutical Co.). The suspended cells were seeded into each well of a 12-well plate in an amount of 0.8 ml/well (corresponding to 8×10^4 cells/well) and incubated in a saturated aqueous vapor with 5% CO2 at 37° C.
# [2] = test system: Japanese native, male house rabbits; settings: rabbit, in vivo
# Protocol: Aqueous solutions of N-methyl-L-serine, ethanolamine and N-methylethanolamine that had been adjusted to have a pH 7 with hydrochloric acid were used as test samples.
# Using Japanese native, male house rabbits (body weight: about 3 kg), the test samples were tested according to the above-mentioned the Draize method.
# Precisely, the back of each rabbit was shaven and rubbed to form a scratched site (scratched skin). An adhesive tape for patch test (1.2×1.6 cm; Ribbon Aid, registered trade mane, produced by River Tape Chemicals Co.) as wetted with 0.1 ml of water, or 0.1 ml of an aqueous 1% (W/V) solution of the test compound was stuck onto the scratched skin and the normal skin. […] In addition, 48 hours after the peeling of the tape, the condition of the skin was also observed.
# The scores as referred to in Table 21 were obtained, and the primary stimulation score was calculated according to the following equation.
# Primary Stimulation Score=[(A+B)/2]+[(C+D)/2]+[(E+F)/2]+[(G+H)/2]
# Next, from the primary stimulation scores, obtained was the degree of stimulation with N-Methyl-L-Serine or Ethanolamine or N-Methylethanolamineaccording to the criteria shown in Table 22 below.
# healthy panelists = settings: in vivo
# Protocol: Aqueous solutions of N-methyl-L-serine, ethanolamine and N-methylethanolamine that had been adjusted to have a pH 7 with hydrochloric acid were used as test samples. These test samples were applied to 19 healthy panelists.
# One hour and 24 hours after the removal of the patch, the condition of the skin of each panelist was observed.
structure (smiles),measurement,setting,value
"CN[C@@H](CO)C(=O)O [Example 1, N-methyl-L-serine]",Procollagenase Production,"[1]; mean ± SD, n = 3",4.2 ± 2.0 unit/ml
same,activity at 1000 µM,"[1]; Homo sapiens, Fibroblast, 144 h, control = 100, read-out: Response to PDGF Increment",690%
same,Primary Stimulation Score,[2],0
same,stimulation to the skin (in words),[2],low
same,panelists with erythema,healthy panelists,only one panelists had minor erythema

# From patent publication US6008188A, “Cytokine potentiator and pharmaceutical formulation for cytokine administration” (Kanebo Limited, priority 1994, dated 1999)
